Where two headings read alike, the source gives them in different places.
Key:
[1] = cited from earlier work
[2] = system: alcohol hangover; assay: Nasal spray administration to a human subject with alcohol hangover; type: in vivo; conditions: 50 mg NAD+ per administration, three times in a day
Experimental: A subject, who is […] and suffers from alcohol hangover was administered by nasal spray a composition of invention (with a dosage of 50 mg NAD+ per administration) three times in a day.

In the case of NC(=O)c1ccc[n+]([C@@H]2O[C@H](COP(=O)([O-])OP(=O)(O)OC[C@H]3O[C@@H](n4cnc5c(N)ncnc54)[C@H](O)[C@@H]3O)[C@@H](O)[C@H]2O)c1 [NAD+, nicotinamide adenine dinucleotide], the stability of solution ([1]; 4° C. and neutral pH) is given as “stable for about a week”, the stability of solution ([1]; in acids or alkalis) is given as “decompose rapidly” and the “symptoms of alcohol hangover” value [2] is given as “Significant improvement”.

Reference: US20190076456A1, “COMPOSITIONS AND METHODS FOR LIVER DISEASES” (priority 2017, published 2019)
